Values after ≈ are worked out from the molar mass of the structure shown. Bridge positions count the residues as written; N and C are the ends. Side chains are listed from the residue outwards. Peptide text beside a SMILES is read from it. I, II: the chains in the order shown. * marks the point of attachment. Lauroyl = CCCCCCCCCCCC(=O)*; Hexanoyl = CCCCCC(=O)*
Legend:
E. faecium ATCC 35667 = assay: microbe, parasite or virus in culture; format: cell-based, Enterococcus faecium; details: ATCC 35667
Method: (§1) Clinical isolates of CRE, MRSA and VRE were obtained from Lancet Laboratories, Durban, South Africa, with approval BE394/15 from the Biomedical Research Ethical Committee of the University of KwaZulu-Natal. Five reference strains of bacteria, namely Escherichia coli ATCC 25922, Pseudomonas aeruginosa ATCC 27853, Enterococcus faecium ATCC 35667, Staphylococcus aureus ATCC 29213 and Bacillus subtilis ATCC 6051 were supplied by the American Type Culture Collection (ATCC).
(§2) MIC values were determined by the broth microdilution method and the significance of the values obtained was interpreted following the guidelines of the Clinical and Laboratory Standards for Antimicrobial Susceptibility Testing.. The effect of human serum on the antimicrobial effect of the molecules tested was determined in a similar way to the MIC method used above in a solution of 50% human serum plus Mueller–Hinton broth.

S. aureus ATCC 29213 = assay: microbe, parasite or virus in culture; format: cell-based, Staphylococcus aureus; details: ATCC 29213
Method: as §1, §2

B. subtilis ATCC 6051 = assay: microbe, parasite or virus in culture; format: cell-based, Bacillus subtilis; details: ATCC 6051
Method: as §1, §2

[1] = tested on: MRSA (methicillin-resistant S. aureus) isolates; assay: microbe, parasite or virus in culture; format: cell-based
Method: as §1, §2

P. aeruginosa ATCC 27853 = assay: microbe, parasite or virus in culture; format: cell-based, Pseudomonas aeruginosa; details: ATCC 27853
Method: as §1, §2

E. coli ATCC 25822 = assay: microbe, parasite or virus in culture; format: cell-based, Escherichia coli; details: ATCC 25822
Method: as §1, §2

in vitro = details: human
Method: (§3) Cell viability was evaluated using the colorimetric MTT assay [21]. Human hepatocarcinoma (HepG2) cells and human embryonic kidney 293 (HEK-293) cells used in the drug toxicity assays were obtained from Cellonex (Johannesburg, South Africa). Viable HepG2 and HEK293 cells (20,000 cells/well) were seeded into a 96-well microtiter plate (200 µL) and allowed to attach overnight. The cells were exposed to varying concentrations of the peptides for 24 h. After removal of the treatment medium, 20 µL of MTT salt solution (5 mg/mL in 0.1M phosphate buffer saline (PBS)) and 100 µL of complete cell culture medium (CCM) were added to each well. After a 4 h (37 °C) incubation, the MTT salt solution was discarded and 100 μL of dimethyl sulphoxide (DMSO) were added to each well (1 h, 37 °C). The optical density of the solubilized formazan product was measured at 570 nm (reference λ of 690 nm) using a Bio-tek μQuant spectrophotometer (Winooski, VT, USA). […] GraphPad Prism (V5) (La Jolla, CA, USA) was used to obtain the half maximum inhibitory concentration (IC50) for each compound.

MTT cytotoxicity assay = format: cell-based, human; details: human, HepG2 cells, HepG2, 24 h exposure
Method: as §3

VRE, E. faecium isolates = assay: microbe, parasite or virus in culture; format: cell-based
Method: as §1, §2

[2] = methicillin-resistant ) isolates

Row | Molecule | MBC (E. faecium ATCC 35667) | MIC (E. faecium ATCC 35667) | MBC (S. aureus ATCC 29213) | MIC (S. aureus ATCC 29213) | MBC (B. subtilis ATCC 6051) | MIC (B. subtilis ATCC 6051) | MBC (P. aeruginosa ATCC 27853) | MIC (P. aeruginosa ATCC 27853) | MBC (E. coli ATCC 25822) | MIC (E. coli ATCC 25822) | also measured
1 | CC(=O)N[C@@H](CCCCN)C(=O)N[C@@H](CC(C)C)C(=O)N[C@@H](CCCCN)C(=O)NCCCC[C@H](NC(=O)[C@H](CCCCN)NC(=O)[C@H](CC(C)C)NC(=O)[C@H](CCCCN)NC(C)=O)C(=O)N[C@@H](CCCCN)C(=O)N[C@@H](CC(C)C)C(=O)N[C@@H](CCCCN)C(=O)NCCCC[C@H](NC(=O)[C@H](CCCCN)NC(=O)[C@H](CC(C)C)NC(=O)[C@H](CCCCN)NC(=O)[C@H](CCCCNC(=O)[C@H](CCCCN)NC(=O)[C@H](CC(C)C)NC(=O)[C@H](CCCCN)NC(C)=O)NC(=O)[C@H](CCCCN)NC(=O)[C@H](CC(C)C)NC(=O)[C@H](CCCCN)NC(C)=O)C(=O)N[C@@H](CC(C)C)C(=O)N[C@@H](CC(C)C)C(=O)N[C@@H](CCCCN)C(=O)N[C@@H](CC(C)C)C(=O)N[C@@H](CC(C)C)C(N)=O [Ac-G2KLK-L2KL2, (Ac-KLK)4(KKLK)2KLLKLL-NH2] (I: Ac-KLKK([Lys-Leu-Lys-Ac])KLKKLLKLL-NH2 / II: Ac-KLKK([Lys-Leu-Lys-Ac])KLK; amide I:8-II:C) | 128 µg/mL (≈ 38 µM) | 64 µg/mL (≈ 19 µM) | 128 µg/mL (≈ 38 µM) | 64 µg/mL (≈ 19 µM) | 16 µg/mL (≈ 4.75 µM) | 8 to 16 µg/mL | 16 µg/mL (≈ 4.75 µM) | 8 to 16 µg/mL | 16 µg/mL (≈ 4.75 µM) | 8 to 16 µg/mL | MIC [1, 2]: 128 µg/mL (≈ 38 µM)
2 | CC1(C)S[C@@H]2[C@H](NC(=O)[C@H](N)c3ccccc3)C(=O)N2[C@H]1C(=O)O [Amp, reference compound] |  |  |  |  |  |  |  |  |  |  | MIC ([1]; MRSA isolate 440260): >512 µg/mL; MIC ([1]; MRSA isolate B11970): >512 µg/mL; MIC ([1]; MRSA isolate B13178): >512 µg/mL; MIC ([1]; MRSA isolate P10747): >512 µg/mL; MIC ([1]; MRSA isolate P10781): >512 µg/mL; MIC ([1]; MRSA isolate P11520): 512 µg/mL (≈ 1470 µM); MIC ([1]; MRSA isolate S18155): >512 µg/mL; MIC ([1]; MRSA isolate S18970): >512 µg/mL; MIC ([1]; MRSA isolate S37938): >512 µg/mL; MIC ([1]; MRSA isolate T5683): >512 µg/mL
3 | CCCCCCCCCCCC(=O)N[C@@H](CCCCN)C(=O)N[C@@H](CC(C)C)C(=O)N[C@@H](CCCCN)C(=O)NCCCC[C@H](NC(=O)[C@H](CCCCN)NC(=O)[C@H](CC(C)C)NC(=O)[C@H](CCCCN)NC(=O)CCCCCCCCCCC)C(=O)N[C@@H](CCCCN)C(=O)N[C@@H](CC(C)C)C(=O)N[C@@H](CCCCN)C(=O)NCCCC[C@H](NC(=O)[C@H](CCCCN)NC(=O)[C@H](CC(C)C)NC(=O)[C@H](CCCCN)NC(=O)[C@H](CCCCNC(=O)[C@H](CCCCN)NC(=O)[C@H](CC(C)C)NC(=O)[C@H](CCCCN)NC(=O)CCCCCCCCCCC)NC(=O)[C@H](CCCCN)NC(=O)[C@H](CC(C)C)NC(=O)[C@H](CCCCN)NC(=O)CCCCCCCCCCC)C(=O)N[C@@H](CC(C)C)C(=O)N[C@@H](CC(C)C)C(=O)N[C@@H](CCCCN)C(=O)N[C@@H](CC(C)C)C(=O)N[C@@H](CC(C)C)C(N)=O [Dd-G2KLK-L2KL2, (Dd-KLK)4(KKLK)2KLLKLL-NH2] (I: Lauroyl-KLKK([Lys-Leu-Lys-Lauroyl])KLKKLLKLL-NH2 / II: Lauroyl-KLKK([Lys-Leu-Lys-Lauroyl])KLK; amide I:8-II:C; N-terminus assumed) |  | >128 µg/mL |  | >128 µg/mL |  | >128 µg/mL |  | >128 µg/mL |  | >128 µg/mL | 
4 | CC(C)C[C@H](NC(=O)[C@H](CC(C)C)NC(=O)[C@H](CCCNC(=N)N)NC(=O)[C@H](CC(C)C)NC(=O)[C@H](CC(C)C)NC(=O)[C@H](CCCCNC(=O)[C@H](CCCNC(=N)N)NC(=O)[C@H](CC(C)C)NC(=O)[C@@H](N)CCCNC(=N)N)NC(=O)[C@H](CCCNC(=N)N)NC(=O)[C@H](CC(C)C)NC(=O)[C@@H](N)CCCNC(=N)N)C(N)=O [G1RLR-L2RL2, (RLR)2KLLRLL-NH2] (H-RLRK([Arg-Leu-Arg])LLRLL-NH2) | 4 µg/mL (≈ 2.49 µM) | 4 µg/mL (≈ 2.49 µM) | 16 µg/mL (≈ 9.97 µM) | 16 µg/mL (≈ 9.97 µM) | 32 µg/mL (≈ 19.9 µM) | 32 µg/mL (≈ 19.9 µM) | 16 µg/mL (≈ 9.97 µM) | 16 µg/mL (≈ 9.97 µM) | 8 µg/mL (≈ 4.98 µM) | 8 µg/mL (≈ 4.98 µM) | IC50 at 24 h (in vitro): 153 µg/mL (≈ 95.3 µM); IC50 at 24 h (MTT cytotoxicity assay): 328 µg/mL (≈ 204 µM)
5 | CCCCCC(=O)N[C@@H](CCCCN)C(=O)N[C@@H](CC(C)C)C(=O)N[C@@H](CCCCN)C(=O)NCCCC[C@H](NC(=O)[C@H](CCCCN)NC(=O)[C@H](CC(C)C)NC(=O)[C@H](CCCCN)NC(=O)CCCCC)C(=O)N[C@@H](CCCCN)C(=O)N[C@@H](CC(C)C)C(=O)N[C@@H](CCCCN)C(=O)NCCCC[C@H](NC(=O)[C@H](CCCCN)NC(=O)[C@H](CC(C)C)NC(=O)[C@H](CCCCN)NC(=O)[C@H](CCCCNC(=O)[C@H](CCCCN)NC(=O)[C@H](CC(C)C)NC(=O)[C@H](CCCCN)NC(=O)CCCCC)NC(=O)[C@H](CCCCN)NC(=O)[C@H](CC(C)C)NC(=O)[C@H](CCCCN)NC(=O)CCCCC)C(=O)N[C@@H](CC(C)C)C(=O)N[C@@H](CC(C)C)C(=O)N[C@@H](CCCCN)C(=O)N[C@@H](CC(C)C)C(=O)N[C@@H](CC(C)C)C(N)=O [Hx-G2KLK-L2KL2, (Hx-KLK)4(KKLK)2KLLKLL-NH2] (I: Hexanoyl-KLKK([Lys-Leu-Lys-Hexanoyl])KLKKLLKLL-NH2 / II: Hexanoyl-KLKK([Lys-Leu-Lys-Hexanoyl])KLK; amide I:8-II:C; N-terminus assumed) | 64 µg/mL (≈ 17.8 µM) | 32 µg/mL (≈ 8.91 µM) | 128 µg/mL (≈ 35.6 µM) | 128 µg/mL (≈ 35.6 µM) | 128 µg/mL (≈ 35.6 µM) | 64 µg/mL (≈ 17.8 µM) | 64 µg/mL (≈ 17.8 µM) | 64 µg/mL (≈ 17.8 µM) | 64 µg/mL (≈ 17.8 µM) | 64 µg/mL (≈ 17.8 µM) | MIC [1, 2]: 64 µg/mL (≈ 17.8 µM)
6 | CN[C@H](CC(C)C)C(=O)N[C@H]1C(=O)N[C@@H](CC(N)=O)C(=O)N[C@H]2C(=O)N[C@H]3C(=O)N[C@H](C(=O)N[C@H](C(=O)O)c4cc(O)cc(O)c4-c4cc3ccc4O)[C@H](O)c3ccc(c(Cl)c3)Oc3cc2cc(c3O[C@@H]2O[C@H](CO)[C@@H](O)[C@H](O)[C@H]2O[C@H]2C[C@](C)(N)[C@H](O)[C@H](C)O2)Oc2ccc(cc2Cl)[C@H]1O [Van, vancomycin, reference compound] |  |  |  |  |  |  |  |  |  |  | MIC (VRE, E. faecium isolates; Enterococcus faecium): > 128 µg/mL; MIC (VRE, E. faecium isolates; Enterococcus faecium, VRE): > 128 µg/mL; MIC (VRE, E. faecium isolates; VRE E. faecium isolate 938072607): >128 µg/mL; MIC (VRE, E. faecium isolates; VRE E. faecium isolate 938600912): >128 µg/mL; MIC (VRE, E. faecium isolates; VRE E. faecium isolate 938636470): >128 µg/mL; MIC (VRE, E. faecium isolates; VRE E. faecium isolate 938666613): >128 µg/mL; MIC (VRE, E. faecium isolates; VRE E. faecium isolate 945530665): >128 µg/mL; MIC (VRE, E. faecium isolates; VRE E. faecium isolate 951208931): >128 µg/mL; MIC (VRE, E. faecium isolates; VRE E. faecium isolate 951234856): >128 µg/mL; MIC (VRE, E. faecium isolates; VRE E. faecium isolate 951245262): >128 µg/mL; MIC ([1]; MRSA isolate B11970): 1 µg/mL (≈ 0.69 µM); MIC ([1]; MRSA isolate B13178): 1 µg/mL (≈ 0.69 µM); MIC ([1]; MRSA isolate P10747): 1 µg/mL (≈ 0.69 µM); MIC ([1]; MRSA isolate P10781): 1 µg/mL (≈ 0.69 µM); MIC ([1]; MRSA isolate P11520): 1 µg/mL (≈ 0.69 µM); MIC ([1]; MRSA isolate S18155): 1 µg/mL (≈ 0.69 µM); MIC ([1]; MRSA isolate S37938): 1 µg/mL (≈ 0.69 µM); MIC ([1]; MRSA isolate T5683): 1 µg/mL (≈ 0.69 µM); MIC ([1]; Staphylococcus aureus): 1 µg/mL (≈ 0.69 µM); MIC ([1]; Staphylococcus aureus, MRSA): 1 µg/mL (≈ 0.69 µM)
7 | I: H-KLKK([Lys-Leu-Lys])KLKKKLKKLLKLL-NH2 / II: H-KLKK([Lys-Leu-Lys])KLKKKLK / III: H-KLKK([Lys-Leu-Lys])KLK / IV: H-KLKK([Lys-Leu-Lys])KLK (amide I:8-IV:C, I:12-II:C, II:8-III:C) [G3KLK-L2KL2, (KLK)8(KKLK)4(KKLK)2KLLKLL-NH2] | 64 µg/mL | 64 µg/mL | 16 µg/mL | 16 µg/mL | 8 µg/mL | 4 to 8 µg/mL | 16 µg/mL | 16 µg/mL | 32 µg/mL | 32 µg/mL | IC50 at 24 h (in vitro): 53.9 µg/mL; IC50 at 24 h (MTT cytotoxicity assay): 25.7 µg/mL
